The values below come from ChEMBL document CHEMBL1124555, “9-Amino-1,2,3,4-tetrahydroacridin-1-ols: synthesis and evaluation as potential Alzheimer's disease therapeutics” (J Med Chem, 1989).

Data set [1] addresses T1, Acetylcholinesterase (Rattus norvegicus, UniProt P37136).
T1 sequence (P37136 whole entry): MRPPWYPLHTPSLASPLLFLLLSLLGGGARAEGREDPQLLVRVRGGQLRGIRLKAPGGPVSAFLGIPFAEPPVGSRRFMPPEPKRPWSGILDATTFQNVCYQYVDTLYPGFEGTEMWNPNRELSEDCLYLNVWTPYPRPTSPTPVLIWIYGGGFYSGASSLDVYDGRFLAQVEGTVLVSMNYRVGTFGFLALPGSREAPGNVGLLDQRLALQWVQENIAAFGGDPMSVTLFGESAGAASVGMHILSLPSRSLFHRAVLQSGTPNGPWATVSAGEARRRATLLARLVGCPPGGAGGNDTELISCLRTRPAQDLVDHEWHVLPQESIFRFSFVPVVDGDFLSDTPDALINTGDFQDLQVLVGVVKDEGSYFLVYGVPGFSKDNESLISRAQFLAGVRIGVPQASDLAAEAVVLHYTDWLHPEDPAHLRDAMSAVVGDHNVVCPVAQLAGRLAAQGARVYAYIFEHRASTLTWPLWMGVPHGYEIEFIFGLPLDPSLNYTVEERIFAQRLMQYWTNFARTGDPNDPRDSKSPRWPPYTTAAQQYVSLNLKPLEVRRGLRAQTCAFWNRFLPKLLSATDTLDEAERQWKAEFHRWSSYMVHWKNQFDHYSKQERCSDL
Description: In vitro inhibition against acetylcholinesterase in rat striata.

The species entered for data set [2] is Mus musculus. It is filed as functional. The following applies: at 1.25 mg/kg.
Description: Reversal of scopolamine-induced memory impairment in mice at 1.25 mg/Kg administered subcutaneously.
Data set [3] is filed under the species Mus musculus. It is filed as functional. Particulars: at […].
Description: Reversal of scopolamine-induced memory impairment in mice at 0.31 mg/Kg administered subcutaneously.
For data set [4], the target named is Sodium-dependent serotonin transporter (Rattus norvegicus, UniProt P31652). It is filed as functional.
Chain of Sodium-dependent serotonin transporter (P31652 whole entry): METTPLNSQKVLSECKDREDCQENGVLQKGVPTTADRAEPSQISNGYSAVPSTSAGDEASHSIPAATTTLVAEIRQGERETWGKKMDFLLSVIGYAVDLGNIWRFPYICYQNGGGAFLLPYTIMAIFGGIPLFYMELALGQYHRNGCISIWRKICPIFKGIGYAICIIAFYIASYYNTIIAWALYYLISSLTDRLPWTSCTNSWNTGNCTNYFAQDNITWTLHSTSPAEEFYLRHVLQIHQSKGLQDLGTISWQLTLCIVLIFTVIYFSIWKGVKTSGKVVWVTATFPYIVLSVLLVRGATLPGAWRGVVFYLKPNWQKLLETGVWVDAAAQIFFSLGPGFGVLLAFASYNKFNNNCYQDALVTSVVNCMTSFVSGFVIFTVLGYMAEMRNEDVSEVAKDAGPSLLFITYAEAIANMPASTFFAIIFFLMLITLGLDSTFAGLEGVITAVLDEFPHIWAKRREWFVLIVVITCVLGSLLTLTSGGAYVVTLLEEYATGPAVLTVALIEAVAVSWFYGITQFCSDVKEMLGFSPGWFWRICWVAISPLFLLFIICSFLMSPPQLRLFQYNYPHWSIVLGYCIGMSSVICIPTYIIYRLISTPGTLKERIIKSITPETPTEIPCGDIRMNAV
Description: Inhibition of serotonin reuptake in rat whole brains without cerebellum
The species named for data set [5] is Mus musculus. It is filed as functional. Particulars: at 0.16 mg/kg.
Description: Reversal of scopolamine-induced memory impairment in mice at 0.16 mg/Kg administered subcutaneously.
The species entered for data set [6] is Mus musculus. It is filed as functional. The following applies: at 5 mg/kg.
Description: Reversal of scopolamine-induced memory impairment in mice at 5 mg/Kg administered subcutaneously.
In data set [7] the target is Sodium-dependent dopamine transporter (Rattus norvegicus, UniProt P23977). It counts as functional.
Chain of Sodium-dependent dopamine transporter (P23977 whole entry): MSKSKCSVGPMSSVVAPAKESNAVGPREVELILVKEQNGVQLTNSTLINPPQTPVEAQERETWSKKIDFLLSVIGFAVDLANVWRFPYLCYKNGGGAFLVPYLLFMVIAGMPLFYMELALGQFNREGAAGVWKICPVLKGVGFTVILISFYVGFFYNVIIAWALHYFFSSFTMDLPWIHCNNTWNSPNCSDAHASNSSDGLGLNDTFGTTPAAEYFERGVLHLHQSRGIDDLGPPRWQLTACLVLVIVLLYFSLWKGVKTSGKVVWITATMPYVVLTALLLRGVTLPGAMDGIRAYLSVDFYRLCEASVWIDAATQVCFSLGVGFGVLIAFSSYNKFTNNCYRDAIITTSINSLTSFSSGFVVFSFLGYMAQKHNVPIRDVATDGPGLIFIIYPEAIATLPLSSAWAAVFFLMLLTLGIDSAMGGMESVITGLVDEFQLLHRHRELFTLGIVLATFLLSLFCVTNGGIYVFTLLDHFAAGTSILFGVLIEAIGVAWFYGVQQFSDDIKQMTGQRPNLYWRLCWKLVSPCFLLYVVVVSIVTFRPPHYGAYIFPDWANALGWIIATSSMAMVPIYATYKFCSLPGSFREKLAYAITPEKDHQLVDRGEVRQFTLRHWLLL
Description: Inhibition of the reuptake of dopamine in rat corpora striata.
The species entered for data set [8] is Mus musculus. It is filed as functional. Particulars: at 2.5 mg/kg.
Description: Reversal of scopolamine-induced memory impairment in mice at 2.5 mg/Kg administered subcutaneously.
The nature of data set [9]: Toxicity was evaluated in rats, after intraperitoneal administration;Value ranges from(40-80). It counts as organism-based. Particulars: rat, in vivo, ip.
Data set [10] concerns the target Norepinephrine transporter (Rattus norvegicus, UniProt Q9WTR4).
Description: Inhibition of norepinephrine reuptake in rat whole brains minus cerebellar
Data set [11] deals with Mus musculus. Nature of the data set: Intra peritoneal administration for the reversal of tetrabenazine ptosis in mice. It is filed as functional.
The species entered for data set [12] is Mus musculus. It is filed as functional. Particulars: at 0.63 mg/kg.
Description: Reversal of scopolamine-induced memory impairment in mice at 0.63 mg/Kg administered subcutaneously.
The next data set is filed under the species Rattus norvegicus. Kind of data set: cells.
A short description of data set [13]: in vivo. The following applies: rat, ip.
Description: Toxicity evaluated in rats after intraperitoneal administration.
Data set [14] in a line: Toxicity was evaluated in rats, after intraperitoneal administration;Value ranges from (40-80). It counts as organism-based. Particulars: rat, in vivo, ip.
Data set [15] in a line: in vivo. Particulars: mouse, ip.
The species named for data set [16] is Mus musculus. Nature of the data set: Compound was tested in nbm model of mice, for the dose at which reversal of retention deficit in lesioned animals and enhanced learning in sham-pperated animals was observed. It is filed as functional.
Data set [17] is described as follows: Toxicity was evaluated in mice, after intraperitoneal administration;Value ranges from(83-107). It counts as organism-based. Particulars: mouse, in vivo, ip.
Data set [18] is described as follows: Toxicity was evaluated in rats, after intraperitoneal administration;Value ranges from 50-60. It counts as organism-based. Particulars: rat, in vivo, ip.
The target of data set [19] is T1, Acetylcholinesterase. Kind of data set: In vitro inhibition against acetylcholinesterase in rat striatal. It counts as functional.
A short description of data set [20]: Toxicity was evaluated in rats, after intraperitoneal administration;Value ranges from (40-80). It counts as organism-based. The following applies: rat, in vivo, ip.

Chain of Norepinephrine transporter (Q9WTR4 whole entry): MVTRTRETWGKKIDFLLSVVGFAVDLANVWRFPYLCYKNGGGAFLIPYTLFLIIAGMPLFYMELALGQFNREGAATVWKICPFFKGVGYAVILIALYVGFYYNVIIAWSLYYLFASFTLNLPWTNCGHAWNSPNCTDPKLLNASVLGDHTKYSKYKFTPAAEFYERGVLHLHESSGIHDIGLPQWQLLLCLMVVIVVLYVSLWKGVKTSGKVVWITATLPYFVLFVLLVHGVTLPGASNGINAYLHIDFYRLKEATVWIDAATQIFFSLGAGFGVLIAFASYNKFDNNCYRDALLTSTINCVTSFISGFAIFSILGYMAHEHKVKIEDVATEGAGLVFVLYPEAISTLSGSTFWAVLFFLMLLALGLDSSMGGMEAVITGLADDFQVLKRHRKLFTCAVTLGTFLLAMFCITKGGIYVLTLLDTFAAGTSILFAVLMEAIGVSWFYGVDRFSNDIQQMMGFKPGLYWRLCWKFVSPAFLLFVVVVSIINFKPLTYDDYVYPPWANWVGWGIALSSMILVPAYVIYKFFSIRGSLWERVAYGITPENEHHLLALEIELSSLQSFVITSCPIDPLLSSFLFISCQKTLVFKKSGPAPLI
Description for Rattus norvegicus: Compound was evaluated for inhibition of the reuptake of norepinephrine

In general, IC50 refers to the concentration that inhibits the measured activity by half. A low value points to inhibition by little substance. For orientation: LD50 means the dose at which mortality reaches 50%. Low readings indicate a more toxic substance, high ones a less toxic substance. A word on the ED50: it is the dose at which the effect has come halfway, by size or by number of responders. In the case of `Cc1ccccc1CNc1c2c(nc3ccccc13)CCCC2O` (stereo unspecified), the IC50 against Acetylcholinesterase [1] was found to be 5.89 µM; in data set [4], 9 µM; in data set [7] it was 0.25 µM; in data set [10] it was 0.053 µM. Also, the Animals in the data set filed under Mus musculus [2] is 13%; in the data set filed under Mus musculus [3] it was 7%; in the data set filed under Mus musculus [5], 0%; in the data set filed under Mus musculus [6], 0%; in the data set listed under Mus musculus [8] it was 7%; in the data set filed under Mus musculus [12], 7%. This compound also had an LD50 in data set [9] below 80 mg/kg. Besides, the ED50 in the data set on Mus musculus [11] amounted to 25.3 mg/kg.
`Nc1c2c(nc3ccc(Cl)cc13)CCCC2O` (stereo unspecified): the half-inhibitory concentration (IC50) against Acetylcholinesterase [1] is 24.7 µM; in the data set filed under Rattus norvegicus it was above 10 µM. In addition, in “in vivo [13]”, the LD50 is 80 mg/kg.
Consider `CCCNc1c2c(nc3ccccc13)CCCC2O` (stereo unspecified), for which the IC50 against Acetylcholinesterase [1] was 13.3 µM; in data set [4] it was above 20 µM; in [7] it was above 20 µM; in the data set listed under Rattus norvegicus, above 20 µM. Further, in [9], the LD50 was below 80 mg/kg.
Compound `Nc1c2c(nc3cc(C(F)(F)F)ccc13)CCCC2O` (stereo unspecified) displayed an IC50 against Acetylcholinesterase [1] of 1.77 µM. In addition, the Animals in the data set filed under Mus musculus [2] is 33%; in the data set listed under Mus musculus [3], 26%; in the data set listed under Mus musculus [5], 40%; in the data set listed under Mus musculus [6] it was 33%; in the data set filed under Mus musculus [8], 21%; in the data set listed under Mus musculus [12] it was 71%. This compound showed an LD50 in data set [9] below 80 mg/kg.
`Nc1c2c(nc3ccccc13)CCCC2O` (stereo unspecified) [VELNACRINE]: the IC50 against Acetylcholinesterase [1] is 4 µM; in data set [4], above 20 µM; in [7], above 20 µM; in data set [10], above 20 µM. Besides, the Animals turned out to be 20% in the data set filed under Mus musculus [2]; 20% in the data set listed under Mus musculus [3]; 14% in the data set filed under Mus musculus [5]; 33% in the data set filed under Mus musculus [6]; 31% in the data set listed under Mus musculus [8]; 33% in the data set filed under Mus musculus [12]. In addition, the LD50 was below 80 mg/kg in [14] and 162 mg/kg in the data set “in vivo [15]”.
For the compound `OC1CCCc2nc3ccccc3c(NCc3ccc(F)cc3)c21` (stereo unspecified), the IC50 at Acetylcholinesterase [1] stood at 16.7 µM; in [4], 12 µM; in [7] it was 2.9 µM; in data set [10] it was 1.8 µM. For the same compound, the Animals in the data set listed under Mus musculus [2] is 27%; in the data set listed under Mus musculus [3], 20%; in the data set listed under Mus musculus [5], 7%; in the data set listed under Mus musculus [6], 6%; in the data set listed under Mus musculus [8], 33%; in the data set filed under Mus musculus [12], 25%. In data set [14], this compound registered an LD50 below 80 mg/kg.
In the case of `OC1CCCc2nc3ccccc3c(NCc3cccc(C(F)(F)F)c3)c21` (stereo unspecified), the IC50 was determined as 14.2 µM on Acetylcholinesterase [1], 2.3 µM in [4], 2.4 µM in data set [7] and 0.93 µM in data set [10]. Moreover, the Animals in the data set listed under Mus musculus [2] is on record as 7%; in the data set listed under Mus musculus [3], 0%; in the data set filed under Mus musculus [5], 0%; in the data set filed under Mus musculus [6], 0%; in the data set listed under Mus musculus [8], 0%; in the data set listed under Mus musculus [12] it was 0%. The LD50 in [14] is below 80 mg/kg.
Regarding `OC1CCCc2nc3cc(F)ccc3c(NCc3ccccc3)c21` (stereo unspecified), the IC50 amounted to 8.63 µM on Acetylcholinesterase [1] and 0.2 µM in [10]. In addition, the Animals in the data set listed under Mus musculus [2] amounted to 0%; in the data set filed under Mus musculus [3], 0%; in the data set listed under Mus musculus [5] it was 13%; in the data set listed under Mus musculus [6] it was 0%; in the data set filed under Mus musculus [8], 0%; in the data set filed under Mus musculus [12] it was 0%. Further, the median lethal dose (LD50) in data set [14] was below 80 mg/kg.
As to `Cc1cccc(CNc2c3c(nc4ccccc24)CCCC3O)c1` (stereo unspecified), the IC50 against Acetylcholinesterase [1] is 24.5 µM; in [4], 5.5 µM; in [7], 0.51 µM; in data set [10] it was 0.22 µM. Further, the Animals in the data set listed under Mus musculus [2] is given as 20%; in the data set listed under Mus musculus [3], 7%; in the data set listed under Mus musculus [5], 7%; in the data set listed under Mus musculus [6], 20%; in the data set listed under Mus musculus [8] it was 13%; in the data set listed under Mus musculus [12], 20%. The compound further returned an LD50 in data set [9] below 80 mg/kg.
As for `OC1CCCc2nc3ccccc3c(NCc3ccccc3)c21` (stereo unspecified) [SURONACRINE], in the data set filed under Mus musculus [16], the Dose turned out to be 20 mg/kg. Further, the Animals in the data set listed under Mus musculus [2] was 13%; in the data set listed under Mus musculus [3] it was 50%; in the data set filed under Mus musculus [5], 27%; in the data set filed under Mus musculus [6], 36%; in the data set listed under Mus musculus [8], 21%; in the data set filed under Mus musculus [12], 20%. The LD50 is 94 mg/kg in data set [17] and below 60 mg/kg in data set [18]. Moreover, the IC50 in data set [4] was 11 µM; in [7], 0.3 µM; in data set [10], 0.07 µM; on Acetylcholinesterase [19] it was 32.2 µM. Moreover, the ED50 in the data set on Mus musculus [11] came to 27.4 mg/kg.
Consider `CNc1c2c(nc3ccccc13)CCCC2O` (stereo unspecified), for which the IC50 was 1.76 µM at Acetylcholinesterase [1], above 20 µM in [4], above 20 µM in data set [7] and above 20 µM in data set [10]. The compound also displayed an LD50 in data set [20] below 80 mg/kg. The Animals was determined as 7% in the data set listed under Mus musculus [2]; 7% in the data set listed under Mus musculus [3]; 0% in the data set listed under Mus musculus [5]; 7% in the data set listed under Mus musculus [6]; 7% in the data set filed under Mus musculus [8]; 0% in the data set filed under Mus musculus [12].
As to `OC1CCCc2nc3ccccc3c(NCc3ccccc3C(F)(F)F)c21` (stereo unspecified), the IC50 came to 13.3 µM against Acetylcholinesterase [1], 3.8 µM in data set [4], 0.95 µM in data set [7] and 0.081 µM in [10]. Further, the Animals in the data set listed under Mus musculus [2] was found to be 20%; in the data set listed under Mus musculus [3] it was 23%; in the data set filed under Mus musculus [5], 38%; in the data set filed under Mus musculus [6], 33%; in the data set listed under Mus musculus [8], 13%; in the data set listed under Mus musculus [12] it was 13%. This compound also displayed an LD50 in “in vivo [13]” of 80 mg/kg. Moreover, the ED50 with Mus musculus [11] is 16.2 mg/kg.
`OC1CCCc2nc3ccccc3c(NCc3cccc(F)c3)c21` (stereo unspecified): the IC50 was 13.1 µM against Acetylcholinesterase [1], 6.2 µM in [4], 0.3 µM in data set [7] and 0.12 µM in data set [10]. Also, the Animals stood at 0% in the data set listed under Mus musculus [2]; 23% in the data set filed under Mus musculus [3]; 33% in the data set listed under Mus musculus [5]; 21% in the data set filed under Mus musculus [6]; 14% in the data set listed under Mus musculus [8]; 7% in the data set listed under Mus musculus [12]. This compound also showed an LD50 in [14] below 80 mg/kg.
With `OC1CCCc2nc3ccccc3c(NCc3ccccc3F)c21` (stereo unspecified), the IC50 against Acetylcholinesterase [1] is 41.3 µM; in data set [4] it was 17 µM; in data set [7], 0.41 µM; in data set [10], 0.11 µM. Further, the Animals was found to be 7% in the data set filed under Mus musculus [2]; 14% in the data set listed under Mus musculus [3]; 7% in the data set listed under Mus musculus [5]; 7% in the data set listed under Mus musculus [6]; 20% in the data set filed under Mus musculus [8]; 33% in the data set filed under Mus musculus [12]. Besides, the LD50 in [14] is below 80 mg/kg.
